Test results as given in patent US20230131966A1, “FUNGICIDAL AMIDES” (FMC Corporation, priority 2020, published 2023).

Assays:
Assay type in all cases: in vivo
[1] = tested on: Phytophthora infestans; experiment: whole plant or invertebrate; details: tomato seedlings, 100 = 100% disease control, 0 = no control; for Test F disease control rating: 250 ppm
[2] = tested on: Phakopsora pachyrhizi; experiment: Test A: Asian soybean rust control on soybean seedlings; details: soybean seedlings, 100 = 100% disease control, 0 = no control
[3] = tested on: Plasmopara viticola; experiment: Test D: grape downy mildew control on grape seedlings; details: 250 ppm, 100 = 100% disease control, 0 = no control
[4] = tested on: Botrytis cinerea; experiment: Test E: tomato Botrytis control on tomato seedlings; details: 250 ppm, 100 = 100% disease control, 0 = no control
[5] = tested on: Erysiphe graminis f. sp. tritici; experiment: Test G: wheat powdery mildew control on wheat seedlings; details: 250 ppm, 100 = 100% disease control, 0 = no control
[6] = tested on: Puccinia recondita f. sp. tritici; experiment: Test B: wheat leaf rust control on wheat seedlings; details: wheat seedlings, 100 = 100% disease control, 0 = no control
[7] = tested on: Zymoseptoria tritici; experiment: Test C: wheat leaf blotch control on wheat seedlings; details: 250 ppm, wheat seedlings, 100 = 100% disease control, 0 = no control

Row | Structure (SMILES) | Test F disease control rating [1] | Test A disease control rating ([2]; 250 ppm) | Test E disease control rating [4] | Test G disease control rating [5] | Test B disease control rating ([6]; 250 ppm) | Test C disease control rating [7] | also measured
1 | COc1ccnc(C(=O)N[C@@H](C)C(=O)OC(C)c2ccc(F)cc2Cc2ccc(F)cc2)c1O (single isomer, unassigned) [Compound 41] | 24% | 100% | 0% | 0% | 100% |  | Test D disease control rating [3]: 70%
2 | COc1ccnc(C(=O)N[C@@H](C)C(=O)OC(C)C2CCCCC2)c1O (single isomer, unassigned) [Compound 51] |  |  |  |  |  |  | Test A disease control rating ([2]; 50 ppm): 100%; Test B disease control rating ([6]; 50 ppm): 100%
3 | COc1ccnc(C(=O)N[C@@H](C)C(=O)OC(C)c2ccccc2Oc2ccccc2)c1O (single isomer, unassigned) [Compound 105] | 0% | 98% | 0% | 0% | 28% | 67% | 
4 | COc1ccnc(C(=O)N[C@@H](C)C(=O)OC(C)c2ccc(F)cc2Cc2ccc(F)cc2)c1O (single isomer, unassigned) [Compound 54] | 0% | 79% | 0% | 0% | 68% |  | Test D disease control rating [3]: 55%
5 | COc1ccnc(C(=O)N[C@@H](C)C(=O)OC(C)c2ccccc2Cc2ccccc2)c1OC(C)=O (single isomer, unassigned) [Compound 112] | 0% | 0% | 0% | 0% | 55% | 83% | 
6 | COc1ccnc(C(=O)NC(C)C(=O)OC(C)C23CC4CC(CC(C4)C2)C3)c1O (racemic) [Compound 44] |  |  |  |  |  |  | pest or weed control at 50 ppm ([2]; Phakopsora pachyrhizi, 50 ppm, read-out: Test A disease control rating): 75%; pest or weed control at 50 ppm ([6]; Puccinia recondita, 50 ppm, read-out: Test B disease control rating): 55%
7 | COc1ccnc(C(=O)N[C@@H](C)C(=O)OC(c2ccc(C3CCCCC3)cc2)C(C)C)c1OC(C)=O (stereo partly shown) [Compound 96] |  |  |  |  |  |  | Test A disease control rating ([2]; 50 ppm): 94%; Test B disease control rating ([6]; 50 ppm): 95%
8 | COc1ccnc(C(=O)N[C@@H](C)C(=O)OC(C)c2ccccc2Oc2ccc(F)cc2)c1O (single isomer, unassigned) [Compound 59] | 0% | 100% | 0% | 13% | 100% |  | Test D disease control rating [3]: 66%
9 | COc1ccnc(C(=O)NC(C)C(=O)OC(C)c2ccc3ccccc3c2)c1O (racemic) [Compound 76] |  |  |  |  |  |  | pest or weed control at 250 ppm ([1]; Phytophthora infestans, in Solanum lycopersicum, read-out: Test F disease control rating, 250 ppm): 0%; pest or weed control at 250 ppm ([2]; Phakopsora pachyrhizi, 250 ppm, read-out: Test A disease control rating): 100%; pest or weed control at 250 ppm ([7]; Zymoseptoria tritici, read-out: Test C disease control rating): 99%; pest or weed control at 250 ppm ([4]; Botrytis cinerea, read-out: Test E disease control rating): 0%; pest or weed control at 250 ppm ([6]; Puccinia recondita, 250 ppm, read-out: Test B disease control rating): 100%
10 | COc1ccnc(C(=O)N[C@@H](C)C(=O)OC(C)c2cccc3ccccc23)c1OC(C)=O (single isomer, unassigned) [Compound 115] | 0% | 89% | 0% | 0% | 55% | 86% | 
11 | COc1ccnc(C(=O)N[C@@H](C)C(=O)OC(C)c2ccccc2Cc2ccccc2)c1O (single isomer, unassigned) [Compound 109] | 0% | 100% | 98% | 0% | 98% | 85% | 
12 | COc1ccnc(C(=O)N[C@@H](C)C(=O)OC(C)c2ccccc2Cc2ccccc2)c1OC(C)=O (single isomer, unassigned) [Compound 110] | 0% | 100% | 0% | 0% | 99% | 92% | 
13 | CCOC(=O)c1cnn(-c2ccc(C(C)OC(=O)C(C)NC(=O)c3nccc(OC)c3O)cc2)c1 (mixture of isomers) [Compound 50] |  |  |  |  | 68% | 54% | 
14 | COc1ccnc(C(=O)NC(C)C(=O)OC(C)c2ccccc2Oc2ccc(F)cc2)c1O (mixture of isomers) [Compound 55] | 0% | 100% | 0% | 13% | 98% |  | Test D disease control rating [3]: 52%
15 | COc1ccnc(C(=O)N[C@@H](C)C(=O)OC(C)c2ccccc2Oc2ccccc2)c1OC(C)=O (single isomer, unassigned) [Compound 108] | 0% | 43% | 0% | 0% | 32% | 75% | 
16 | COc1ccnc(C(=O)N[C@@H](C)C(=O)OC(C)c2ccccc2Cc2ccccc2)c1O (single isomer, unassigned) [Compound 111] | 0% | 97% | 16% | 0% | 9% | 56% | 
17 | COc1ccnc(C(=O)N[C@@H](C)C(=O)OC(C)C2CCCCC2)c1O (single isomer, unassigned) [Compound 52] |  |  |  |  |  |  | Test A disease control rating ([2]; 50 ppm): 32%; Test B disease control rating ([6]; 50 ppm): 9%
18 | COc1ccnc(C(=O)N[C@@H](C)C(=O)OC(C)c2ccccc2Oc2ccccc2)c1OC(C)=O (single isomer, unassigned) [Compound 107] | 0% | 100% | 0% | 0% | 98% | 87% | 
19 | COc1ccnc(C(=O)N[C@@H](C)C(=O)OC(C)c2ccc(C3CCCCC3)cc2)c1O (single isomer, unassigned) [Compound 74] |  |  |  |  |  |  | Test A disease control rating ([2]; 50 ppm): 100%; Test B disease control rating ([6]; 50 ppm): 99%
20 | COc1ccnc(C(=O)N[C@@H](C)C(=O)OC(C)c2ccc(C3CCCCC3)cc2)c1O (single isomer, unassigned) [Compound 73] |  |  |  |  |  |  | Test A disease control rating ([2]; 50 ppm): 0%; Test B disease control rating ([6]; 50 ppm): 41%
21 | COc1ccnc(C(=O)NC(C)C(=O)OC(C)c2ccc(F)cc2Cc2ccc(F)cc2)c1O (mixture of isomers) [Compound 42] | 0% | 100% | 0% | 0% | 100% |  | Test D disease control rating [3]: 66%
22 | COc1ccnc(C(=O)N[C@@H](C)C(=O)OC(C)c2ccccc2Oc2ccccc2)c1O (single isomer, unassigned) [Compound 106] | 0% | 100% | 16% | 0% | 92% | 90% | 
23 | COc1ccnc(C(=O)NC(C)C(=O)OC(C)c2ccc(C3CCCC3)cc2)c1O (mixture of isomers) [Compound 65] |  |  |  |  |  |  | Test A disease control rating ([2]; 50 ppm): 100%; Test B disease control rating ([6]; 50 ppm): 98%
24 | COc1ccnc(C(=O)NC(C)C(=O)OC(C)c2ccc(C3CC3)cc2)c1OC(C)=O (mixture of isomers) [Compound 71] |  |  |  |  |  |  | Test A disease control rating ([2]; 50 ppm): 89%
